Measured values: patent US9273084B2, “Moenomycin analogs, methods of synthesis, and uses thereof” (priority 2012, dated 2016)
Structures can show the parent of a compound that is named as a salt.

Assays:
Assay type in all cases: cell-based
[1] = tested on: E. faecalis 29212; assay: MIC assay, 96 well broth dilution with MTT staining; set-up: unit not given beside the values; conditions: BHI containing 0.1% casamino acids, 35-37° C., 20 h
Method: (§1) A 96 well plate with 100 μL test medium in all wells was prepared by handheld multipipettor. A stock solution of the antibiotic or compound in DMSO (0.05˜10 mg/mL, 5 μL) and the same medium (95 μL) were put together into column one, where the compound concentration doubled the highest one to be tested. Two columns were necessary for each compound to check the reproducibility. The compound was diluted by adding 100 μL from column one to column two with a 50% volume mix done three times; diluting serially across the plate was continued.
(§2) The day before the assay was scheduled to be run, strains were suspended in the test media (Brain Heart Infusion (BHI) containing 0.1% casamino acids for S. aureus, S. epidermidis, and E. faecalis, Trypticase Soy Broth (TSB) containing 5% sheep blood for S. pneumoniae, and Lysogeny Broth (LB) for E. coli) and incubated overnight at 35-37° C. The suspension was diluted with the same media to 1%, 100 μL of which was added to each well of the MIC plate. The MIC plate was incubated at 35-37° C. for 20 h. A thiazolyl blue tetrazolium bromide (MTT) solution (1 mg/mL-water, 50 μL) was added into each well and the resulting MIC plate was incubated at 35-37° C. for a few hours to stain wells in which cell proliferated. Growth is also visible as any turbidity in wells.

[2] = tested on: E. faecalis 33186; assay: as above; set-up: unit not given beside the values; conditions: BHI containing 0.1% casamino acids, 35-37° C., 20 h
Method: as §1, §2

[3] = tested on: E. coli MG1655; assay: as above; set-up: unit not given beside the values; conditions: LB, 35-37° C., 20 h
Method: as §1, §2

[4] = tested on: S. epidermidis 1228; assay: as above; set-up: unit not given beside the values; conditions: BHI containing 0.1% casamino acids, 35-37° C., 20 h
Method: as §1, §2

[5] = tested on: S. epidermidis 700562; assay: as above; set-up: unit not given beside the values; conditions: BHI containing 0.1% casamino acids, 35-37° C., 20 h
Method: as §1, §2

[6] = tested on: S. aureus 25923; assay: as above; set-up: unit not given beside the values; conditions: S. aureus 25923 (second strain line); BHI containing 0.1% casamino acids; 35-37° C., 20 h
Method: as §1, §2

[7] = tested on: S. aureus 13709; assay: as above; set-up: unit not given beside the values; conditions: BHI containing 0.1% casamino acids, 35-37° C., 20 h
Method: as §1, §2

[8] = tested on: S. pneumoniae 6303; assay: as above; conditions: TSB containing 5% sheep blood, 35-37° C., 20 h
Method: as §1, §2

[9] = tested on: S. pneumoniae #1629; assay: as above; conditions: TSB containing 5% sheep blood, 35-37° C., 20 h
Method: as §1, §2

[10] = tested on: E. coli NR698; set-up: unit not given beside the values; conditions: LB, 35-37° C., 20 h
Method: as §1, §2

[11] = S. aureus 13709 (first strain line)
[12] = S. aureus 13709 (third strain line)

Compound	MIC [1]	MIC [2]	MIC [3]	MIC [4]	MIC [5]	MIC [6]	MIC [7, 11]	MIC [7, 12]	MIC [8]	MIC [9]	MIC [10]
CC(=O)NC1C(OC2C(COC3OC(CO)C(O)C(O)C3O)OC(OC3C(OP(=O)(O)OCC(OCC=C(C)CCC=C(C)CCC=C(C)C)C(=O)O)OC(C(N)=O)C(C)(O)C3OC(N)=O)C(NC(C)=O)C2O)OC(C)C(OC2OC(C(=O)NC3=C(O)CCC3=O)C(O)C(O)C2O)C1O.N [1c, N1-[(2-Hydroxy-5-oxo-cyclopenten-1-yl)-(5S)-β-D-galactopyranuronamide]-(1→4)-2-acetamide-2,6-dideoxy-β-D-gluopyranosyl-(1→4)-[β-D-glucopyranosyl-(1→6)]-2-acetamido-2-deoxy-β-D-glucopyranosyl)-(1→2)-3-O-carbamoyl-1-O—{[(R)-2-carboxy-2-((2Z,6E)-3,7,11-trimethyl-dodeca-2,6,10-trien-1-yloxy)ethoxy]hydroxyphosphoryl}-4-C-methyl-α-D-glucopyranuronamide]	250 >250	250 >250	> 250	>250 >250	>250 >250	>250 >250 250	>250 >250 250	>250 >250 250	63	31	0.98
CCCCCCCCCCCCCCCCCCCCOC(COP(=O)(O)OC1OC(C(N)=O)C(C)(O)C(OC(N)=O)C1OC1OC(COC2OC(CO)C(O)C(O)C2O)C(OC2OC(C)C(OC3OC(C(=O)NC4=C(O)CCC4=O)C(O)C(O)C3O)C(O)C2NC(C)=O)C(O)C1NC(C)=O)C(=O)O.N [1d, N1-[(2-Hydroxy-5-oxo-cyclopenten-1-yl)-(5S)-β-D-galactopyranuronamide]-(1→4)-2-acetamide-2,6-dideoxy-β-D-gluopyranosyl-(1→4)-[β-D-glucopyranosyl-(1→6)]-2-acetamido-2-deoxy-β-D-glucopyranosyl)-(1→2)-3-O-carbamoyl-1-O—{[(R)-2-carboxy-2-(eicosan-1-yloxy)ethoxy]hydroxyphosphoryl}-4-C-methyl-α-D-glucopyranuronamide]	–	–	7.8	0.63	1.3	0.63	1.3	0.63	2.0	3.1	0.0049
CC(=O)NC1C(OC2C(COC3OC(CO)C(O)C(O)C3O)OC(OC3C(OP(=O)(O)OCC(OCCCCCCCCCCC(F)(F)C(F)(F)C(F)(F)C(F)(F)C(F)(F)C(F)(F)C(F)(F)C(F)(F)F)C(=O)O)OC(C(N)=O)C(C)(O)C3OC(N)=O)C(NC(C)=O)C2O)OC(C)C(OC2OC(C(=O)NC3=C(O)CCC3=O)C(O)C(O)C2O)C1O.N [1f, N1-[(2-Hydroxy-5-oxo-cyclopenten-1-yl)-(5S)-β-D-galactopyranuronamide]-(1→4)-2-acetamide-2,6-dideoxy-β-D-gluopyranosyl-(1→4)-[β-D-glucopyranosyl-(1→6)]-2-acetamido-2-deoxy-β-D-glucopyranosyl)-(1→2)-3-O-carbamoyl-1-O—{[(R)-2-carboxy-2-(11,11,12,12,13,13,14,14,15,15,16,16,17,17,18,18,18-heptadecafluoro-octadecan-1-yloxy)ethoxy]hydroxyphosphoryl}-4-C-methyl-α-D-glucopyranuronamide]	0.98	2.0	250	0.98	2.0	2.0	3.9	2.0	2.0	0.98	> 0.16
CCCCCCCCCCCCCCCCOC(COP(=O)(O)OC1OC(C(N)=O)C(C)(O)C(OC(N)=O)C1OC1OC(COC2OC(CO)C(O)C(O)C2O)C(OC2OC(C)C(OC3OC(C(=O)NC4=C(O)CCC4=O)C(O)C(O)C3O)C(O)C2NC(C)=O)C(O)C1NC(C)=O)C(=O)O.N [1g, N1-[(2-Hydroxy-5-oxo-cyclopenten-1-yl)-(5S)-β-D-galactopyranuronamide]-(1→4)-2-acetamide-2,6-dideoxy-β-D-gluopyranosyl-(1→4)-[β-D-glucopyranosyl-(1→6)]-2-acetamido-2-deoxy-β-D-glucopyranosyl)-(1→2)-3-O-carbamoyl-1-O—{[(R)-2-carboxy-2-(hexadecan-1-yloxy)ethoxy]hydroxyphosphoryl}-4-C-methyl-α-D-glucopyranuronamide]	31	16	250	16	31	16	16	16	16	16	0.16
CC(=O)NC1C(OC2C(COC3OC(CO)C(O)C(O)C3O)OC(OC3C(OP(=O)(O)OCC(OCc4cccc(OCc5cccc(-c6cccc(OCc7ccccc7)c6)c5)c4)C(=O)O)OC(C(N)=O)C(C)(O)C3OC(N)=O)C(NC(C)=O)C2O)OC(C)C(OC2OC(C(=O)NC3=C(O)CCC3=O)C(O)C(O)C2O)C1O.N [1i, N1-[(2-Hydroxy-5-oxo-cyclopenten-1-yl)-(5S)-β-D-galactopyranuronamide]-(1→4)-2-acetamide-2,6-dideoxy-β-D-gluopyranosyl-(1→4)-[β-D-glucopyranosyl-(1→6)]-2-acetamido-2-deoxy-β-D-glucopyranosyl)-(1→2)-3-O-carbamoyl-1-O—{[(R)-2-carboxy-2-(3-((3′-(benzyloxy)-[1,1′-biphenyl]-3-yl)methoxy)phenylmethan-1-yloxy)ethoxy]hydroxyphosphoryl}-4-C-methyl-α-D-glucopyranuronamide]	16	32	> 250	3.9	7.8	7.8	7.8	7.8	3.9	7.8	0.49
CC(=O)NC1C(OC2C(COC3OC(CO)C(O)C(O)C3O)OC(OC3C(OP(=O)(O)OCC(OCc4cccc(OCc5cccc(-c6cccc(C)c6)c5)c4)C(=O)O)OC(C(N)=O)C(C)(O)C3OC(N)=O)C(NC(C)=O)C2O)OC(C)C(OC2OC(C(=O)NC3=C(O)CCC3=O)C(O)C(O)C2O)C1O.N [1j, N1-[(2-Hydroxy-5-oxo-cyclopenten-1-yl)-(5S)-β-D-galactopyranuronamide]-(1→4)-2-acetamide-2,6-dideoxy-β-D-gluopyranosyl-(1→4)-[β-D-glucopyranosyl-(1→6)]-2-acetamido-2-deoxy-β-D-glucopyranosyl)-(1→2)-3-O-carbamoyl-1-O—{[(R)-2-carboxy-2-(3-((3′-methyl-[1,1′-biphenyl]-3-yl)methoxy)phenylmethan-1-yloxy)ethoxy]hydroxyphosphoryl}-4-C-methyl-α-D-glucopyranuronamide]	>250 >250	>250 >250	> 250	125	> 250	>250 >250 >250	>250 >250 >250	>250 >250 >250	16	16	0.98
CN[C@H](CC(C)C)C(=O)N[C@H]1C(=O)N[C@@H](CC(N)=O)C(=O)N[C@H]2C(=O)N[C@H]3C(=O)N[C@H](C(=O)N[C@H](C(=O)O)c4cc(O)cc(O)c4-c4cc3ccc4O)[C@H](O)c3ccc(c(Cl)c3)Oc3cc2cc(c3O[C@@H]2O[C@H](CO)[C@@H](O)[C@H](O)[C@H]2O[C@H]2C[C@](C)(N)[C@H](O)[C@H](C)O2)Oc2ccc(cc2Cl)[C@H]1O [Vancomycin•HCl, reference compound]	3.9	2.0	250	2.0	3.9	3.9	3.9	2.0	0.49	0.49	0.49
